Laboratory results: PubChem BioAssay AID292 (DTP/NCI, 2004)
Several values for one entry are separate records, joined by “and”; a condition that tells them apart may be missing. Identical values can stand only once. Toxic doses and inconclusive results are not listed.

Tested on: B6C3F1 mice, ip Sarcoma M5076, median survival T/C
Assay: NCI In Vivo Anticancer Drug Screen. Data for tumor model Sarcoma M5076 (intraperitoneal) in B6C3F1 mice
Settings: endpoint: median survival time, higher = longer survival
Experimental: The antitumor activity of compounds was measured in mice bearing transplantable tumors. Survival or tumor size were measured and the results are expressed as the measurement made in the treated group (T) divided by the measurement made in the vehicle treated control group (C). The tumor model used in this assay is Sarcoma M5076 (intraperitoneal) in B6C3F1 mice

[1] = dose: 50.0 mg/kg/injection, schedule: Q04DX004 (ip), vehicle: saline with Tween-80
[2] = dose: 100.0 mg/kg/injection, schedule: Q04DX004 (ip), vehicle: saline with Tween-80
[3] = dose: 200.0 mg/kg/injection, schedule: Q04DX004 (ip), vehicle: saline with Tween-80
[4] = dose: 800.0 mg/kg/injection, schedule: Q04DX004 (ip), vehicle: saline with Tween-80
[5] = dose: 37.5 mg/kg/injection, schedule: Q04DX004 (ip), vehicle: Klucel (hydroxypropylcellulose) (HPC)
[6] = dose: 75.0 mg/kg/injection, schedule: Q04DX004 (ip), vehicle: Klucel (hydroxypropylcellulose) (HPC)
[7] = dose: 150.0 mg/kg/injection, schedule: Q04DX004 (ip), vehicle: Klucel (hydroxypropylcellulose) (HPC)
[8] = dose: 300.0 mg/kg/injection, schedule: Q04DX004 (ip), vehicle: Klucel (hydroxypropylcellulose) (HPC)
[9] = dose: 12.5 mg/kg/injection, schedule: Q04DX004 (ip), vehicle: saline with Tween-80
[10] = dose: 25.0 mg/kg/injection, schedule: Q04DX004 (ip), vehicle: saline with Tween-80

In the case of `CC(C)CCC(=O)c1ccoc1`, the T/C (dose: 0.25 mg/kg/injection, schedule: Q03HX012 (ip), vehicle: saline with Tween-80) is reported as 96 % of control, the T/C (dose: 0.5 mg/kg/injection, schedule: Q03HX012 (ip), vehicle: saline with Tween-80) is reported as 96 % of control and the T/C (dose: 1.0 mg/kg/injection, schedule: Q03HX012 (ip), vehicle: saline with Tween-80) is reported as 90 % of control. For the same molecule, the T/C (dose: 2.0 mg/kg/injection, schedule: Q03HX012 (ip), vehicle: saline with Tween-80) was 99 % of control.

For `COc1cc2c(c(OC)c1O)-c1ccc(OC)c(=O)cc1[C@@H](NC(=O)C(F)(F)F)CC2`, the T/C (dose: 0.9 mg/kg/injection, schedule: Q04DX004 (ip), vehicle: Klucel (hydroxypropylcellulose) (HPC)) was 110 % of control, the T/C (dose: 1.55 mg/kg/injection, schedule: Q04DX004 (ip), vehicle: Klucel (hydroxypropylcellulose) (HPC)) was 124 % of control and the T/C (dose: 2.59 mg/kg/injection, schedule: Q04DX004 (ip), vehicle: Klucel (hydroxypropylcellulose) (HPC)) was 122 % of control. The T/C (dose: 4.32 mg/kg/injection, schedule: Q04DX004 (ip), vehicle: Klucel (hydroxypropylcellulose) (HPC)) was 124 % of control and the T/C (dose: 7.2 mg/kg/injection, schedule: Q04DX004 (ip), vehicle: Klucel (hydroxypropylcellulose) (HPC)) was 124 % of control.

In the case of `O=C(Nc1ccccc1CCl)Nc1ccccc1CCl`, the T/C [1] is reported as 107 % of control, the T/C [2] is reported as 102 % of control and 110 % of control and the T/C [3] is reported as 109 % of control and 114 % of control. The T/C [4] was 123 % of control.

For `CO[C@@H]1C2=CC=CC=C[C@H]2n2c(=O)n(C)c(=O)n21`, the T/C (dose: 37.5 mg/kg/injection, schedule: Q04DX004 (ip), vehicle: other) was 104 % of control, the T/C (dose: 75.0 mg/kg/injection, schedule: Q04DX004 (ip), vehicle: other) was 100 % of control and the T/C (dose: 150.0 mg/kg/injection, schedule: Q04DX004 (ip), vehicle: other) was 100 % of control. For the same molecule, the T/C (dose: 300.0 mg/kg/injection, schedule: Q04DX004 (ip), vehicle: other) was 104 % of control.

For `CC[C@](O)(C(=O)O)c1cc2n(c(=O)c1CO)Cc1cc3ccccc3nc1-2`, the T/C (dose: 3.12 mg/kg/injection, schedule: Q04DX004 (ip), vehicle: saline) was 115 % of control, the T/C (dose: 6.25 mg/kg/injection, schedule: Q04DX004 (ip), vehicle: saline) was 115 % of control and 123 % of control and the T/C (dose: 12.5 mg/kg/injection, schedule: Q04DX004 (ip), vehicle: saline) was 119 % of control. The T/C (dose: 25.0 mg/kg/injection, schedule: Q04DX004 (ip), vehicle: saline) was 123 % of control and the T/C (dose: 50.0 mg/kg/injection, schedule: Q04DX004 (ip), vehicle: saline) was 114 % of control.

`CCc1nc(N)nc(N)c1-c1ccc(Cl)c(N=[N+]=[N-])c1` was tested, and the T/C (dose: 8.37 mg/kg/injection, schedule: Q04DX004 (ip), vehicle: water) was 107 % of control, the T/C (dose: 16.75 mg/kg/injection, schedule: Q04DX004 (ip), vehicle: water) was 108 % of control and the T/C (dose: 33.5 mg/kg/injection, schedule: Q04DX004 (ip), vehicle: distilled water + Tween-80) was 102 % of control. For the same molecule, the T/C (dose: 33.5 mg/kg/injection, schedule: Q04DX004 (ip), vehicle: water) was 119 % of control, the T/C (dose: 67.0 mg/kg/injection, schedule: Q04DX004 (ip), vehicle: distilled water + Tween-80) was 109 % of control and the T/C (dose: 134.0 mg/kg/injection, schedule: Q04DX004 (ip), vehicle: distilled water + Tween-80) was 102 % of control. For the same molecule, the T/C (dose: 536.0 mg/kg/injection, schedule: Q04DX004 (ip), vehicle: distilled water + Tween-80) was 174 % of control.

In the case of `CCNC(=O)OCc1cnc(C)c(OC(=O)NCC)c1COC(=O)NCC`, the T/C [1] is reported as 89 % of control, the T/C [2] is reported as 90 % of control and the T/C [3] is reported as 87 % of control. The T/C (dose: 400.0 mg/kg/injection, schedule: Q04DX004 (ip), vehicle: saline with Tween-80) was 86 % of control and the T/C [4] was 91 % of control.

`Clc1ccc(CC(Cn2ccnc2)c2ccccc2Cl)cc1` (configuration not stated) was tested, and the T/C (dose: 15.63 mg/kg/injection, schedule: Q04DX004 (ip), vehicle: saline with Tween-80) was 111 % of control, the T/C (dose: 31.25 mg/kg/injection, schedule: Q04DX004 (ip), vehicle: saline with Tween-80) was 102 % of control and the T/C (dose: 62.5 mg/kg/injection, schedule: Q04DX004 (ip), vehicle: saline with Tween-80) was 96 % of control. The T/C (dose: 125.0 mg/kg/injection, schedule: Q04DX004 (ip), vehicle: saline with Tween-80) was 87 % of control.

`N#CC1C(=O)NC(=S)NC1c1ccc(Cl)c(Cl)c1` (configuration not stated) was tested, and the T/C [5] was 94 % of control, the T/C [6] was 99 % of control and the T/C [7] was 97 % of control. For the same molecule, the T/C [8] was 91 % of control and the T/C (dose: 600.0 mg/kg/injection, schedule: Q04DX004 (ip), vehicle: Klucel (hydroxypropylcellulose) (HPC)) was 89 % of control.

With `COC(=O)c1c(C(=O)OC)c2c(C)nn3ccc1n23` the T/C [9] was 96 % of control, the T/C [10] was 97 % of control and the T/C [1] was 96 % of control. For the same molecule, the T/C [2] was 104 % of control and the T/C [3] was 93 % of control.

With `Cc1c(N)nc([C@H](CC(N)=O)NC[C@H](N)C(N)=O)nc1C(=O)N[C@H](C(=O)N[C@H](C)[C@@H](O)[C@H](C)C(=O)N[C@H](C(=O)NCCc1nc(-c2nc(C(=O)NCCC[S+](C)C)cs2)cs1)[C@@H](C)O)C(OC1OC(CO)C(O)C(O)C1OC1OC(CO)C(O)C(OC(N)=O)C1O)c1cnc[nH]1` (some centres not stated) the T/C (dose: 5.0 mg/kg/injection, schedule: Q04DX004 (ip), vehicle: saline) was 94 % of control, the T/C (dose: 10.0 mg/kg/injection, schedule: Q04DX004 (ip), vehicle: saline) was 94 % of control and the T/C (dose: 20.0 mg/kg/injection, schedule: Q04DX004 (ip), vehicle: saline) was 109 % of control. For the same molecule, the T/C (dose: 40.0 mg/kg/injection, schedule: Q04DX004 (ip), vehicle: saline) was 106 % of control.

For `Cc1ccc2c(c1)n([O-])c1cc(Cl)ccc1[n+]2=O`, the T/C [10] was 104 % of control, the T/C [1] was 113 % of control and the T/C [2] was 109 % of control. The T/C (dose: 144.0 mg/kg/injection, schedule: Q04DX004 (ip), vehicle: saline with Tween-80) was 120 % of control.

`C=C(OC)C(Nc1cc(OC)c(OC)cc1C(=O)OC1CC(O[C@@H]2C(=O)C(NC(=O)OC)=C3/C(=C\CSSSC)[C@]2(O)C#C/C=C\C#C[C@@H]3OC2OC(C)C(NOC3CC(O)C(SC)C(C)O3)C(O)C2OC2CC(OC)C(NCCC)CO2)OC(C)C1O)OC` (some centres not stated) was tested, and the T/C (dose: 0.32 micrograms/kg/injection, schedule: Q04DX004 (ip), vehicle: saline + alcohol) was 152 % of control and the T/C (dose: 1.28 micrograms/kg/injection, schedule: Q04DX004 (ip), vehicle: saline + alcohol) was 156 % of control.

For `OC1(c2ccccc2)c2ccccc2NC2=NCCN21` (configuration not stated), the T/C [10] was 95 % of control and the T/C [1] was 96 % of control.

In the case of `O=S(Cl)C(Cl)=C(Cl)Cl` (configuration not stated), the T/C (dose: 25.0 mg/kg/injection, schedule: Q04DX004 (ip), vehicle: Klucel (hydroxypropylcellulose) (HPC)) is reported as 86 % of control.

`CCOC(=O)c1cn(C)c2c1C(=O)C(C(=O)OCC)CC(=O)N2` (configuration not stated) was tested, and the T/C (dose: 31.25 mg/kg/injection, schedule: Q04DX004 (ip), vehicle: saline + Tween-80 + alcohol) was 100 % of control, the T/C (dose: 62.5 mg/kg/injection, schedule: Q04DX004 (ip), vehicle: saline + Tween-80 + alcohol) was 101 % of control and the T/C (dose: 125.0 mg/kg/injection, schedule: Q04DX004 (ip), vehicle: saline + Tween-80 + alcohol) was 94 % of control. The T/C (dose: 250.0 mg/kg/injection, schedule: Q04DX004 (ip), vehicle: saline + Tween-80 + alcohol) was 92 % of control.

In the case of `Cc1ccc(C(=O)[O][Hg][CH2]C2COC([CH2][Hg][O]C(=O)c3ccc(C)cc3)CO2)cc1` (configuration not stated), the T/C (dose: 6.25 mg/kg/injection, schedule: Q04DX004 (ip), vehicle: saline with Tween-80) is reported as 99 % of control, the T/C [9] is reported as 88 % of control and the T/C [10] is reported as 88 % of control.

In the case of `Nc1nc(=O)nc2[nH]c3c4cccc5cccc(c3nc12)c54` (tested in a mixture with another compound), the T/C (dose: 18.75 mg/kg/injection, schedule: Q04DX004 (ip), vehicle: Klucel (hydroxypropylcellulose) (HPC)) is reported as 104 % of control, the T/C [5] is reported as 102 % of control and the T/C [6] is reported as 104 % of control. For the same molecule, the T/C [7] was 98 % of control and the T/C [8] was 94 % of control.

`CC(=O)OCc1cc(=O)n(C)c2c3c4c(cc12)c(C)cc(=O)n4CO3` was tested, and the T/C (dose: 10.0 mg/kg/injection, schedule: Q04DX004 (ip), vehicle: Klucel (hydroxypropylcellulose) (HPC)) was 103 % of control, the T/C (dose: 20.0 mg/kg/injection, schedule: Q04DX004 (ip), vehicle: Klucel (hydroxypropylcellulose) (HPC)) was 112 % of control and the T/C (dose: 40.0 mg/kg/injection, schedule: Q04DX004 (ip), vehicle: Klucel (hydroxypropylcellulose) (HPC)) was 104 % of control. The T/C (dose: 80.0 mg/kg/injection, schedule: Q04DX004 (ip), vehicle: Klucel (hydroxypropylcellulose) (HPC)) was 111 % of control.
